Data on four molecules can be found in patent US20110002944A1, “Compositions and Methods to Promote Neural Cell Growth” (The Johns Hopkins University, priority 2006, published 2011).

In one assay the test system is FAK. Briefly: MAG-induced FAK tyrosine phosphorylation in hippocampal neurons (IP anti-FAK, immunoblot). The assay is classed as cell-based, rat. Conditions: echistatin 100 nM. As to the method:
The question was next asked how β1-integrin signaling transduces MAG-induced neuronal responses. Focal adhesion kinase (FAK) is a major mediator of integrin-dependent signaling in many contexts, including cell migration and axon guidance (Nakamoto et al., 2004; Nikolopoulos and Gianotti, 2005; Xie and Tsai, 2004). […] MAG-induced FAK phosphorylation was abolished in the presence of echistatin (100 nM) or Ha2/5 ([…]) (FIG. 6B). […] The specific FAK tyrosine residues that become phosphorylated upon MAG stimulation in hippocampal neurons were next examined. […] Similar β1-integrin-dependent FAK phosphorylation of these tyrosine residues was also found in embryonic cortical neurons treated with MAG (data not shown).
Hippocampal neurons were isolated from embryonic and postnatal rats, or wild-type and NgR knockout mice (Zheng et al., 2005) as previously described (Song et al., 2002a; Song et al., 2002b). Similarly, cerebellar neurons were isolated from P5 rat cerebellum (Xiang et al., 2002). They were cultured on poly-L-lysine coated plates or coverslips as previously described (Song et al., 2002a; Song et al., 2002b). For biochemical analysis, embryonic day 18 (E18) neurons were treated with the agent AraC to eliminate dividing astrocytes and used at 5 days after plating as previously described (Song et al., 2002a; Song et al., 2002b). […]
Background: Immunoblotting shows a protein as a band on a membrane.

Another assay has as its target T1, β1-integrin (Rattus norvegicus, UniProt P49134).
T1 construct: endogenous in cells; host or cells: primary hippocampal neurons (E18, 5 days after plating)
Briefly: Co-immunoprecipitation of MAG-Fc and β1-integrin in primary hippocampal neurons. The assay is classed as binding. Conditions: echistatin 100 nM; primary hippocampal cultures treated with MAG-Fc. Here is the method:
To determine whether β1-integrin interacts with myelin associated glycoprotein (MAG), cultured primary hippocampal neurons were treated with recombinant MAG consisting of the MAG extracellular domain fused to human Fc (MAG-Fc; see Experimental Procedures), a fusion protein previously shown to potently regulate neurite outgrowth and induce growth cone turning responses (Domeniconi et al., 2002; Henley et al., 2004; Liu et al., 2002; McKerracher et al., 1994; Shim et al., 2005; Song et al., 1998).
(§1) Hippocampal neurons were isolated from embryonic and postnatal rats, or wild-type and NgR knockout mice (Zheng et al., 2005) as previously described (Song et al., 2002a; Song et al., 2002b). Similarly, cerebellar neurons were isolated from P5 rat cerebellum (Xiang et al., 2002). They were cultured on poly-L-lysine coated plates or coverslips as previously described (Song et al., 2002a; Song et al., 2002b). For biochemical analysis, embryonic day 18 (E18) neurons were treated with the agent AraC to eliminate dividing astrocytes and used at 5 days after plating as previously described (Song et al., 2002a; Song et al., 2002b). For growth cone turning assay, neurons were used between 2-3 days after plating. […]

The subject of assay [1] is axonal growth cones of P5 rat hippocampal neurons. The assay can be described thus: Growth cone turning assay in a MAG gradient, P5 hippocampal neurons. The assay is classed as cell-based. Here is the method:
To examine the functional role of β1-integrin in transducing MAG signaling in neuronal growth cones, growth cone turning assays were performed using rat hippocampal neurons. Growth cone turning assays are well-known and described in the art, for example by Song et al., 1998; Xiang et al., 2002; see also Experimental Procedures.
as §1
Microscopic gradients of recombinant MAG (150 μg/ml in the pipette) and OMgp (5 μg/ml in the pipette) were produced as previously described (Lohof et al., 1992; Song et al., 1998; Xiang et al., 2002). […] Statistical significance was assessed using ANOVA and accepted if p<0.01. […]

In assay [2] the test system is axonal growth cones of rat P5 hippocampal neurons. The assay can be described thus: Growth cone turning assay in an OMgp gradient, P5 hippocampal neurons. The assay is classed as cell-based. The note with it: for growth cone turning response to a gradient of the protein: 5 μg/ml in the pipette. An excerpt: Three major myelin-associated inhibitory factors, Nogo-66, MAG and OMgp, are known to bind the common NgR protein, and may utilize the same signal transduction pathway to inhibit axonal extension (Domeniconi et al., 2002; Fournier et al., 2001; Liu et al., 2002; Wang et al., 2002b). Therefore, whether β1-integrin also mediates growth cone responses to other myelin-associated inhibitors was next considered. […] Thus, β1-integrin appears to specifically mediate acute axonal growth cone turning induced by MAG, but not by OMgp.
Hippocampal neurons were isolated from embryonic and postnatal rats, or wild-type and NgR knockout mice (Zheng et al., 2005) as previously described (Song et al., 2002a; Song et al., 2002b). Similarly, cerebellar neurons were isolated from P5 rat cerebellum (Xiang et al., 2002). They were cultured on poly-L-lysine coated plates or coverslips as previously described (Song et al., 2002a; Song et al., 2002b). For biochemical analysis, embryonic day 18 (E18) neurons were treated with the agent AraC to eliminate dividing astrocytes and used at 5 days after plating as previously described (Song et al., 2002a; Song et al., 2002b). For growth cone turning assay, neurons were used between 2-3 days after plating. PI-PLC (1 or 2 units/ml) (Wang et al., 2002b), Ha2/5 (1 μg/ml) or echistatin (100 nM) (Gan et al., 1988) were added for 30 mins prior to and were present during the biochemical analysis or the growth cone turning assay.
Microscopic gradients of recombinant MAG (150 μg/ml in the pipette) and OMgp (5 μg/ml in the pipette) were produced as previously described (Lohof et al., 1992; Song et al., 1998; Xiang et al., 2002). Axons were identified as the longest neurite in these cultures at the stage 2-3 of hippocampal neurons as previously described (Dotti et al., 1988). Growth cone assays were carried out at room temperature for 30 min. […] Statistical significance was assessed using ANOVA and accepted if p<0.01.

T1 sequence (P49134 21-799): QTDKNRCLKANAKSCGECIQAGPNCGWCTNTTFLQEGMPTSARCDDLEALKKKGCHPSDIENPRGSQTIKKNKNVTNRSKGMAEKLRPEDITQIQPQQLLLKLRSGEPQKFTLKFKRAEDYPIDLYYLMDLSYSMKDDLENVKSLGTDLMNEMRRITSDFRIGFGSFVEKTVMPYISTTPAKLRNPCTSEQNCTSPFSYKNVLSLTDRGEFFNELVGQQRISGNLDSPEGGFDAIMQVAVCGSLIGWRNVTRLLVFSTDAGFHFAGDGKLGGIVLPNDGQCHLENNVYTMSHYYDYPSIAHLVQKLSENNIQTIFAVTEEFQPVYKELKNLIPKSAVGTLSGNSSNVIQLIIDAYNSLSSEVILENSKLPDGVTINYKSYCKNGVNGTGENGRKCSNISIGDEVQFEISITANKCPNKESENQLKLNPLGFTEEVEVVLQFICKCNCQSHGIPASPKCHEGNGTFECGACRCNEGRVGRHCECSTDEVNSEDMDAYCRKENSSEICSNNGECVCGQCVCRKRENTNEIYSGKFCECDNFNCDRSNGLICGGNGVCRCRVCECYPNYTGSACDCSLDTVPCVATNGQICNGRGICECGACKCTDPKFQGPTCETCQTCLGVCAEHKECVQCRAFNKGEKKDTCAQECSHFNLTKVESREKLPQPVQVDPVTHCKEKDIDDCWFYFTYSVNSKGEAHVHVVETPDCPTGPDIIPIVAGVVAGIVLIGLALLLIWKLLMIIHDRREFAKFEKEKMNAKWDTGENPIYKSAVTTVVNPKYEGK

Turning to echistatin, the “effect on MAG-induced FAK phosphorylation” value with FAK is “abolished”. On β1-integrin, the “association between MAG and β1-integrin (co-immunoprecipitation)” value is “attenuated”. Besides, in assay [1] (100 nM echistatin, MAG 150 μg/ml in the pipette), the “effect on MAG-induced growth cone repulsion” value is recorded as “completely abolished”. The “effect on OMgp-induced growth cone repulsion” value in assay [2] (echistatin 100 nM, OMgp 5 μg/ml in the pipette) is given as “still exhibited significant repulsion”.

B1: MAG-HI: heat-inactivated MAG (protein, UniProt P20916 20-626, looked up)
Myelin-associated glycoprotein: GHWGAWMPSSISAFEGTCVSIPCRFDFPDELRPAVVHGVWYFNSPYPKNYPPVVFKSRTQVVHESFQGRSRLLGDLGLRNCTLLLSNVSPELGGKYYFRGDLGGYNQYTFSEHSVLDIVNTPNIVVPPEVVAGTEVEVSCMVPDNCPELRPELSWLGHEGLGEPAVLGRLREDEGTWVQVSLLHFVPTREANGHRLGCQASFPNTTLQFEGYASMDVKYPPVIVEMNSSVEAIEGSHVSLLCGADSNPPPLLTWMRDGTVLREAVAESLLLELEEVTPAEDGVYACLAENAYGQDNRTVGLSVMYAPWKPTVNGTMVAVEGETVSILCSTQSNPDPILTIFKEKQILSTVIYESELQLELPAVSPEDDGEYWCVAENQYGQRATAFNLSVEFAPVLLLESHCAAARDTVQCLCVVKSNPEPSVAFELPSRNVTVNESEREFVYSERSGLVLTSILTLRGQAQAPPRVICTARNLYGAKSLELPFQGAHRLMWAKIGPVGAVVAFAILIAIVCYITQTRRKKNVTESPSFSAGDNPPVLFSSDFRISGAPEKYESERRLGSERRLLGLRGEPPELDLSYSHSDLGKRPTKDSYTLTEELAEYAEIRVK
modifications: heat-inactivated
B1: in assay [1] (150 μg/ml in the pipette, 30 min), the “growth cone turning response to a gradient of the protein” value (shortened to “growth cone turning response”) is given as “no bias in the direction of axonal extension”.

B2: OMgp: recombinant oligodendrocyte-myelin glycoprotein (protein, UniProt P23515 25-417, looked up)
Oligodendrocyte-myelin …: ICPLQCICTERHRHVDCSGRNLSTLPSGLQENIIHLNLSYNHFTDLHNQLTQYTNLRTLDISNNRLESLPAHLPRSLWNMSAANNNIKLLDKSDTAYQWNLKYLDVSKNMLEKVVLIKNTLRSLEVLNLSSNKLWTVPTNMPSKLHIVDLSNNSLTQILPGTLINLTNLTHLYLHNNKFTFIPDQSFDQLFQLQEITLYNNRWSCDHKQNITYLLKWMMETKAHVIGTPCSTQISSLKEHNMYPTPSGFTSSLFTVSGMQTVDTINSLSVVTQPKVTKIPKQYRTKETTFGATLSKDTTFTSTDKAFVPYPEDTSTETINSHEAAAATLTIHLQDGMVTNTSLTSSTKSSPTPMTLSITSGMPNNFSEMPQQSTTLNLWREETTTNVKTPLPS
On to B2, for which the “growth cone turning response” value in assay [2] is recorded as “significant repulsive turning responses”.

B3: heat-inactivated Omgp: heat-inactivated OMgp (protein, UniProt P23515 25-417, looked up)
Oligodendrocyte-myelin …: ICPLQCICTERHRHVDCSGRNLSTLPSGLQENIIHLNLSYNHFTDLHNQLTQYTNLRTLDISNNRLESLPAHLPRSLWNMSAANNNIKLLDKSDTAYQWNLKYLDVSKNMLEKVVLIKNTLRSLEVLNLSSNKLWTVPTNMPSKLHIVDLSNNSLTQILPGTLINLTNLTHLYLHNNKFTFIPDQSFDQLFQLQEITLYNNRWSCDHKQNITYLLKWMMETKAHVIGTPCSTQISSLKEHNMYPTPSGFTSSLFTVSGMQTVDTINSLSVVTQPKVTKIPKQYRTKETTFGATLSKDTTFTSTDKAFVPYPEDTSTETINSHEAAAATLTIHLQDGMVTNTSLTSSTKSSPTPMTLSITSGMPNNFSEMPQQSTTLNLWREETTTNVKTPLPS
modifications: heat-inactivated
B3: the “growth cone turning response” value in assay [2] was “not”.
